Experimental data: US20250345512A1, “COMBINATION SODIUM-GLUCOSE COTRANSPORTER INHIBITOR (SGLTI) INSULIN THERAPY FOR GLYCEMIC CONTROL IN TYPE 1 DIABETES” (University of Virginia Patent Foundation, priority 2022, published 2025)

System: participants with T1D
Assay: Randomized crossover clinical trial (NCT04201496): CGM glycemic outcomes with 5 mg daily empagliflozin adjunctive to AID (Control-IQ, CIQ) or PLGS (Basal-IQ, BIQ)
Assay type: in vivo, human
Settings: for % CGM time <50 mg/dL (<2.8 mmol/L) / % CGM time <60 mg/dL (<3.3 mmol/L) / % CGM time <70 mg/dL (<3.9 mmol/L) / % CGM time >180 mg/dL (>10.0 mmol/L) / % CGM time >250 mg/dL (>13.9 mmol/L) / % CGM time >300 mg/dL (>16.7 mmol/L) / CGM HBGI / CGM LBGI: median (IQR)
Procedure: FIG. 2 presents a study analysis relative to baseline, control IQ (CIQ) (e.g., AID), and basal IQ (BIQ) (e.g., PLGS) implementation, according to investigation that is demonstrable of one or more embodiments herein. Therein, an experimental arm (G1, G2) providing an initial daily dose of 5 mg empagliflozin (EMPA) is depicted against a control arm (G3, G4) without such dosing (NOEMPA). Relative characteristics of the analysis are provided below.
Study Design: A single-center, randomized, controlled, unblinded, crossover clinical trial (NCT04201496) compared four parallel groups, two groups in the experimental arm (EMPA) with 5 mg daily empagliflozin as adjunctive therapy to PLGS or AID, and two groups in the control arm (NOEMPA) with no drug and with a PLGS system (Basal-IQ, Tandem Diabetes Care) or AID system (Control-IQ, Tandem Diabetes Care). The groups within each arm differed from one another in the order of the randomly assigned crossover technological intervention, relative to PLGS being followed by AID or AID being followed by PLGS, respectively (FIG. 4). The study protocol was approved by the University of Virginia Institutional Review Board (IRB). An investigational device exemption (IDE), including an investigational new drug (IND) application for empagliflozin, was approved by the FDA. Safety aspects were overseen by an external data and safety monitoring board (DSMB). Participants: Major inclusion criteria were T1D treated with insulin for at least one year, use of continuous subcutaneous insulin infusion therapy for at least six months, age 18-65 yrs., no use of glucose lowering agents other than insulin, and Hb1Ac<9% (75 mmol/mol). Randomization: A (1:1:1:1) randomization assigned participants to either Group 1, AID-EMPA (4 weeks) followed by PLGS-EMPA (2 weeks), Group 2, PLGS-EMPA (2 weeks) followed by AID-EMPA (4 weeks), Group 3, AID-NOEMPA (4 weeks) followed by PLGS-NOEMPA (2 weeks), and Group 4, PLGS-NOEMPA (2 weeks) followed by AID-NOEMPA (4 weeks). Procedures: After confirmation of eligibility, participants underwent study equipment and medication training (experimental arm), or only study equipment training (control arm). Study equipment consisted of Dexcom G6® CGM (Dexcom Inc., San Diego, CA), Contour® Next blood glucose (Ascensia Diabetes Care, Basel, Switzerland) and Precision Xtra® blood ketone meters (Abbott, Alameda, CA) with their respective test strips; infusion sets, and the use of the t:slim X2™ insulin pump with Basal-IQ or Control-IQ technologies (Tandem Diabetes Care, San Diego, CA), according to randomization. […] Participants in the experimental arm were asked to record two days of baseline ketone values before initiating the use of the study drug. Thereafter, participants were directed to use the study CGM with EMPA for 1-2 weeks. A tolerance to the medication was assessed prior to the starting of the next study phase, including adherence to the protocol, ketone testing 2-4 times per day with monitored values not greater than 0.6 mmol/L on at least two successive occasions (the first testing upon waking in a fasted state), no adverse events relating to perineal infection or symptomatic postural hypotension, and no evidence of significant hypoglycemia <54 mg/dL, or any other listed adverse effects of the medication. Participants in the control arm were directed to use the study CGM for 1-2 weeks. Sample Size: The total sample size was projected to be 40 participants, assuming 1) 1:1:1:1 randomization; 2) 90% power and type 1 error a=0.01, further reinforcing the feasibility of hierarchical analyses. The projected recruitment sample was n=50, to accommodate up to 20% attrition rate without sacrificing statistical power. Analytical methods: For the primary analysis, TIR during the day in the 4-week AID period was compared between the two EMPA groups versus the two NOEMPA groups using a linear mixed-effects regression model while adjusting for pre-randomization HbAlc and age. […]

[1] = overall, CIQ-EMPA vs. BIQ-NOEMPA, BIQ-EMPA vs. CIQ-NOEMPA
[2] = overall, CIQ-EMPA vs. CIQ-NOEMPA, BIQ-EMPA vs. BIQ-NOEMPA
[3] = overall, CIQ-EMPA vs. CIQ-NOEMPA, BIQ-EMPA vs. BIQ-NOEMPA, listed as AID-EMPA
[4] = overnight, CIQ-EMPA vs. BIQ-EMPA
[5] = overnight, CIQ-EMPA vs. BIQ-EMPA, listed as AID-EMPA
[6] = overnight, CIQ-EMPA vs. BIQ-NOEMPA, BIQ-EMPA vs. CIQ-NOEMPA
[7] = overnight, CIQ-EMPA vs. CIQ-NOEMPA, BIQ-EMPA vs. BIQ-NOEMPA

OC[C@H]1O[C@@H](c2ccc(Cl)c(Cc3ccc(O[C@H]4CCOC4)cc3)c2)[C@H](O)[C@@H](O)[C@@H]1O [CIQ-EMPA, empagliflozin]
Difference: CGM HBGI [1]: −5.4
Difference: CGM LBGI [1]: −0.1
Difference: % CGM time >180 mg/dL (>10.0 mmol/L) [2]: −22.3 percentage points
Difference: CGM HBGI [2]: −2.7
Difference: CGM LBGI [2]: 0
Difference: CGM SD [2]: -12.3 mg/dL
Difference: % CGM time 70-180 mg/dL (<3.9-10.0 mmol/L) [3]: +14.7 percentage points
Difference: % CGM time >180 mg/dL (>10.0 mmol/L) [3]: −12.3 percentage points
Difference: % CGM time >250 mg/dL (>13.9 mmol/L) [3]: −4.9 percentage points
% CGM time <70-140 mg/dL (<3.9-7.8 mmol/L) (overall, n = 16, mean ± SD): 59.6 ± 13.7%
% CGM time <70-180 mg/dL (<3.9-10.0 mmol/L) (overall, n = 16, mean ± SD): 83 ± 10.6%
CGM CV (%) (overall, n = 16, mean ± SD): 29.4 ± 3.6%
CGM SD (overall, n = 16, mean ± SD): 40.5 ± 9.4 mg/dL
Mean CGM glucose (overall, n = 16, mean ± SD): 137 ± 18.6 mg/dL
% CGM time <50 mg/dL (<2.8 mmol/L) (overall, n = 16): 0(0-0.2) %
% CGM time <60 mg/dL (<3.3 mmol/L) (overall, n = 16): 0.3(0.1-0.5) %
% CGM time <70 mg/dL (<3.9 mmol/L) (overall, n = 16): 1.1(0.5-1.5) %
% CGM time >180 mg/dL (>10.0 mmol/L) (overall, n = 16): 11.5(7-19) %
% CGM time >250 mg/dL (>13.9 mmol/L) (overall, n = 16): 1.1(0.2-2.9) %
% CGM time >300 mg/dL (>16.7 mmol/L) (overall, n = 16): 0(0-0.5) %
CGM HBGI (overall, n = 16): 2.7(2-4.4)
CGM LBGI (overall, n = 16): 0.5(0.4-0.6)
Difference (95% CI): % CGM time 70 mg/dL (<3.9 mmol/L) [4]: −1.5 percentage points
Difference (95% CI): % CGM time <50 mg/dL (<2.8 mmol/L) [4]: 0.2 percentage points
Difference (95% CI): % CGM time <60 mg/dL (<3.3 mmol/L) [4]: −0.4 percentage points
Difference (95% CI): % CGM time >250 mg/dL (>13.9 mmol/L) [4]: −2.5 percentage points
Difference (95% CI): % CGM time >300 mg/dL (>16.7 mmol/L) [4]: −2.5 percentage points
Difference (95% CI): CGM CV (%) [4]: −5.1%
Difference (95% CI): CGM HBGI [4]: −2.1
Difference (95% CI): CGM LBGI [4]: −0.5
Difference (95% CI): CGM SD [4]: -10.2 mg/dL
Difference (95% CI): Mean CGM glucose [4]: -11.7 mg/dL
Difference (95% CI): % CGM time 70-180 mg/dL (3.9-10.0 mmol/L) [5]: +10.2 percentage points
Difference (95% CI): % CGM time >180 mg/dL (>10.0 mmol/L) [5]: −9.5 percentage points
Difference (95% CI): % CGM time <60 mg/dL (<3.3 mmol/L) [6]: −0.3 percentage points
Difference (95% CI): % CGM time >180 mg/dL (>10.0 mmol/L) [6]: −27.3 percentage points
Difference (95% CI): % CGM time >250 mg/dL (>13.9 mmol/L) [6]: −16.4 percentage points
Difference (95% CI): % CGM time >300 mg/dL (>16.7 mmol/L) [6]: −7.6 percentage points
Difference (95% CI): CGM CV (%) [6]: −11.1%
Difference (95% CI): CGM HBGI [6]: −7.3
Difference (95% CI): CGM LBGI [6]: −0.3
Difference (95% CI): CGM SD [6]: -27.1 mg/dL
Difference (95% CI): Mean CGM glucose [6]: -36.2 mg/dL
Difference (95% CI): % CGM time 70 mg/dL (<3.9 mmol/L) [7]: −1.1 percentage points
Difference (95% CI): % CGM time <50 mg/dL (<2.8 mmol/L) [7]: −0.1 percentage points
Difference (95% CI): % CGM time <60 mg/dL (<3.3 mmol/L) [7]: −0.6 percentage points
Difference (95% CI): % CGM time >180 mg/dL (>10.0 mmol/L) [7]: −14.6 percentage points
Difference (95% CI): % CGM time >250 mg/dL (>13.9 mmol/L) [7]: −5.5 percentage points
Difference (95% CI): CGM HBGI [7]: −3.2
Difference (95% CI): CGM LBGI [7]: 0.2
Difference (95% CI): CGM SD [7]: -18.3 mg/dL
Difference (95% CI): Mean CGM glucose [7]: -21.5 mg/dL
% CGM time 70-140 mg/dL (3.9-7.8 mmol/L) (overnight, n = 16, mean ± SD): 64 ± 18%
% CGM time 70-180 mg/dL (3.9-10.0 mmol/L) (overnight, n = 16, mean ± SD): 87 ± 13%
CGM CV (%) (overnight, n = 16, mean ± SD): 25.4 ± 5.4%
CGM SD (overnight, n = 16, mean ± SD): 34.2 ± 10.7 mg/dL
Mean CGM glucose (overnight, n = 16, mean ± SD): 133 ± 20 mg/dL
% CGM time <50 mg/dL (<2.8 mmol/L) (overnight, n = 16): 0(0-0.3) %
% CGM time <60 mg/dL (<3.3 mmol/L) (overnight, n = 16): 0.3(0-0.5) %
% CGM time <70 mg/dL (<3.9 mmol/L) (overnight, n = 16): 0.7(0-1.3) %
% CGM time >180 mg/dL (>10.0 mmol/L) (overnight, n = 16): 6.3(3.3-11.1) %
% CGM time >250 mg/dL (>13.9 mmol/L) (overnight, n = 16): 0(0-2) %
% CGM time >300 mg/dL (>16.7 mmol/L) (overnight, n = 16): 0(0-0.4) %
CGM HBGI (overnight, n = 16): 2.1(1.3-2.7)
CGM LBGI (overnight, n = 16): 0.4(0.2-0.5)
night-time in range, h out of 8 h (overnight, out of 8 h of the night-time, listed as AID-EMPA): 7 h
